Tests used:
[1] = target: RBP4-TTR interaction (Homo sapiens (Human), UniProt P02753); assay: TR-FRET (HTRF) assay for retinol-induced RBP4-TTR interaction; type: biochemical; conditions: in the presence of 1 μM retinol; read-out: HTRF assay for antagonists of RBP4-TTR interaction: IC50
Description: Binding of a desired RBP4 antagonist displaces retinol and induces hindrance for RBP4-TTR interaction resulting in the decreased FRET signal (FIG. 7). Bacterially expressed MBP-RBP4 and untagged TTR were used in this assay. […] Following cell lysis, recombinant RBP4 was purified from the soluble fraction using the ACTA FPLC system (GE Healthcare) equipped with the 5-ml the MBP Trap HP column. Human untagged TTR was purchased from Calbiochem. […] HTRF assay was performed in white low volume 384 well plates (Greiner-Bio) in a final assay volume of 16 μl per well. The reaction buffer contained 10 mM Tris-HCl pH 7.5, 1 mM DTT, 0.05% NP-40, 0.05% Prionex, 6% glycerol, and 400 mM KF. […] Titration of test compounds in this assay was conducted in the presence of 1 μM retinol. All reactions were assembled in the dark under dim red light and incubated overnight at +4° C. wrapped in aluminum foil. TR-FRET signal was measured in the SpectraMax M5e Multimode Plate Reader (Molecular Device). […] The TR-FRET signal was expressed as the ratio of fluorescence intensity: Flu665/Flu620×10,000.

[2] = test system: serum RBP4 and retinol; conditions: in vivo; cited from earlier work

Row | Compound | IC50 [1] [nM] | serum RBP4 and retinol [2]
1 | COCCN1CCc2c(C(=O)N3CCC(c4cccc(F)c4C(F)(F)F)CC3)n[nH]c2C1 [Compound 77, (4-(3-Fluoro-2-(trifluoromethyl)phenyl)piperidin-1-yl)(6-(2-methoxyethyl)-4,5,6,7-tetrahydro-3aH-pyrazolo[3,4-c]pyridin-3-yl)methanone] | 1.62 | –
2 | CC1=C(/C=C/C(C)=C/C=C/C(C)=C/C(=O)Nc2ccc(O)cc2)C(C)(C)CCC1 [fenretinide, N-(4-hydroxy-phenyl)retinamide] | – | reduce serum RBP4 and retinol
